Common to all, as to assay: BMP activity luciferase reporter assay (BRE-luciferase, ID1 promoter) in C2C12 cells
The subject of one test is BMP9. Type of test: cell-based, mouse. Particulars: 25 ng/ml hBMP9, 16 h; LDN 0.5 μM; DMH1 0.2 μM. As to the method: (§1) C2C12 cells were plated in 96-well plates when they reached confluency, cells were treated in triplicate with 25 ng/ml of BMP9, 50 ng/ml of BMP10 or 50 ng/ml of BMP12 (all from R&D Systems), for 16 hours. VHHs or Noggin were added at a concentration of 5 ug/ml. C2C12 cells or HEK293 were plated on 12-well plates and starved for 5 hours, before stimulation with 2 ng/ml of TGF-β (R&D Systems) or 100 ng/ml Activin-A (R&D Systems), respectively. VHHs at the indicated concentrations were added at the same time. After 1 hour cells were lysed, and protein isolation and SDS-PAGE separation were performed as described previously. For protein detection the following antibodies were used: antiphospho-SMAD2 at 1:1000 (Cell Signaling).
(§2) C2C12 cells were cultured in 96-well plates at 5×10^3 cells/well. After overnight attachment cells were stimulated with 10 ng/ml hBMP4 (Cat No. 314-BP-020; R&D Systems), 50 ng/ml hBMP2 (Cat No. 355-BM-010; R&D Systems), 200 ng/ml hBMP5 (Cat No. 615-BMC-020; R&D Systems), 50 ng/ml hBMP6 (Cat No. 506-BP-020; R&D Systems), 200 ng/ml hBMP7 (Cat No. 354-BP-010; R&D Systems), 25 ng/ml hBMP9 (Cat No. 3209-BP-010; R&D Systems), 25 ng/ml hBMP10 (Cat No. 2926-BP-025; R&D Systems), 50 ng/ml hBMP12 (Cat No. 779-G7-010; R&D Systems) and with or without VHH antibodies: C4C4 and C8C8 at 500 ng/ml; natural antagonist: mNoggin (Cat No. 1967-NG-025; R&D Systems), hNoggin (Cat No. 6057-NG; R&D Systems) and mGremlin (cat#956-GR-050; R&D Systems) at 500 ng/ml; chemical antagonist: 0.5 μM LDN-193189 (Cat No. 11802; Cayman Chemical) and 0.2 μM DMH1 (Cat No. 57146; Selleckchem).

A further test concerns human BMP4. The test is classed as cell-based, mouse. Particulars: LDN 0.5 μM, DMH1 0.2 μM; for specificity / selectivity across BMP2, 4, 5, 6, 7, 9, 10, 12: VHH 500 ng/ml. As to the method: (§3) One of the most studied BMP target genes is the Inhibitor of Differentiation 1 (ID1). This is an immediate early gene that is activated by binding of the phosphorylated SMADs to its promoter region (López-Rovira et al., 2002). Thus, we employed the BMP-responsive C2C12 cells, which are stably transfected with the BRE-luciferase vector containing the BMP-Responsive-Element (the mouse ID1 promoter) cloned into the pGL3 luciferase vector (Zilberberg 2007). […] C2C12 cells were treated with the different BMPs with or without our VHHs or human Noggin at a concentration of 5 μg/ml. Luciferase activity was measured after 16 hours incubation. Most of the transcriptional data is in concordance with the results obtained with the phosphorylation of SMAD1/5/8.
(§4) C2C12 cells were plated in 96-well plates at 5×10^3 cells/well and cells were allowed to attach overnight. 100 μl of DMEM with 0.1% BSA were added in each well. VHH antibodies and human Fc-Noggin at the indicated concentrations were added at the same time. Wells with unstimulated cells were added as controls. Cells were treated in triplicate with the BMPs at the indicated concentrations for 16 hours. Luciferase activity was measured by adding 100 μl of luciferase substrate solution from the Bright-Glo™ Luciferase Assay System (Promega Benelux, Leiden, The Netherlands). After 3 minutes of incubation, luciferase activity was measured with Synergy HT Multi-Mode Microplate Reader (Biotek, Winooski, Vt., United States). Luciferase values were normalized to background activity (activity of wells with no cells) and represented as ratio to the activity of BMP-stimulated cells.
(§5) To evaluate the extent of this increase in potency, the IC50 of the different VHHs were determined in a dose-dependent inhibition assay in C2C12 cells (FIG. 25). C2C12 cells were plated in 96-well plates at 5×10^3 cells/well and cells were allowed to attach overnight 100 μl of DMEM with 0.1% BSA were added in each well. VHH antibodies were added at the indicated concentrations at the same time as 5 ng/ml BMP4 (FIG. 25A-B, D) or 50 ng/ml of BMP2 (FIG. 25C,D). Luciferase activity was measured after 16 hours. Values are represented as ratio to the activity of BMP-stimulated cells. […] However, its effects were more striking for BMP2 rather than BMP4 inhibition. […] The IC50 values for BMP4 inhibition observed in our VHHs are considerably lower than those observed for anti-BMP4 commercially available from R&D (Katagiri et al 1994) and those described in WO_2008/030611.
as §2
(§6) VHH efficacy was evaluated by stimulating cells with 10 ng/ml of hBMP4 and 50 ng/ml of hBMP2, with and without increase concentrations (from 0.1-10 μg/ml) of VHH and anti-BMP4 antibodies: clone 66119, clone 3H2, clone M912262, clone PA354-16.1.1, Clone EPR6211, and anti-BMP4 (ab39973). […] Unstimulated cells were used as controls and wells with no cells used to normalize the background activity. […]

The subject of another test is BMP10. The test is classed as cell-based, human. The conditions noted are these: 25 ng/ml hBMP10, 16 h; LDN 0.5 μM; DMH1 0.2 μM. On the procedure: as §1
C2C12 cells were cultured in 96-well plates at 5×10^3 cells/well. […]

The next test deals with T1, BMP2 (Homo sapiens, UniProt P12643).
T1 sequence (P12643 283-396): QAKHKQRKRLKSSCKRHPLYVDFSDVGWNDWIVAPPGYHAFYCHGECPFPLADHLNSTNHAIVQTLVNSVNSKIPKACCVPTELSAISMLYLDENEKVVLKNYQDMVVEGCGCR
Type of test: cell-based, mouse. Particulars: 50 ng/ml hBMP2, 16 h; VHH, Noggin, Gremlin 500 ng/ml; LDN 0.5 μM; DMH1 0.2 μM. As to the method:
as §3, §4, §5, §2, §6

The next test addresses T2, BMP5 (Homo sapiens, UniProt P22003).
T2 sequence (P22003 317-454): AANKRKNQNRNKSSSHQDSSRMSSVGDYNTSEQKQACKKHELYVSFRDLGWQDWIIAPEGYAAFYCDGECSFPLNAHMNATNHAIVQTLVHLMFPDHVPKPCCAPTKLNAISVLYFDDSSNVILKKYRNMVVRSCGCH
Type of test: cell-based, mouse. Also on record: purchased R&D Systems 615-BMC-020. Particulars: 200 ng/ml hBMP5, 16 h; VHH, Noggin, Gremlin 500 ng/ml; LDN 0.5 μM; DMH1 0.2 μM. On the procedure: as §3
as §4, with “Cells were treated in triplicate with the BMPs at the indicated concentrations for 16 hours.” left out, “Luciferase values were normalized to background activity (activity of wells with no cells) and represented as ratio to the activity of BMP-stimulated cells.” left out

Data on three molecules can be found in US10280218B2, “Antibodies binding to BMP4, and uses thereof” (ACADEMISCH MEDISCH CENTRUM, priority 2014, dated 2019).

Consider `CC(C)Oc1ccc(-c2cnc3c(-c4ccnc5ccccc45)cnn3c2)cc1` [DMH1], for which the “inhibition of BMP-9-derived signals, comparison of inhibitors” value in the test with BMP9 was “shown to inhibit”. The “specificity / selectivity across BMP2, 4, 5, 6, 7, 9, 10, 12” value in the test on human BMP4 was “even less selective than Noggin”. For the same molecule, the “inhibition of BMP-10-derived signals, comparison of inhibitors” value in the test with BMP10 is “shown to inhibit”.

As for `c1ccc2c(-c3cnn4cc(-c5ccc(N6CCNCC6)cc5)cnc34)ccnc2c1` [LDN, LDN-193189], the “inhibition of BMP-9-derived signals, comparison of inhibitors” value in the test with BMP9 was “shown to inhibit”. For the same molecule, in the test on human BMP4, the “specificity / selectivity across BMP2, 4, 5, 6, 7, 9, 10, 12” value is “even less selective than Noggin”. Moreover, in the test on BMP10, the “inhibition of BMP-10-derived signals, comparison of inhibitors” value was “shown to inhibit”.

B1: Gremlin: natural BMP antagonist (R&D Systems) (protein)
chain: KKKGSQGAIPPPDKAQHNDSEQTQSPPQPGSRTRGRGQGRGTAMPGEEVLESSQEALHVTERKYLKRDWCKTQPLKQTIHEEGCNSRTIINRFCYGQCNSFYIPRHIRKEEGSFQSCSFCKPKKFTTMMVTLNCPELQPPTKKKRVTRVKQCRCISIDLD
For the molecule B1, the “inhibition of BMP-2 signals, comparison of inhibitors” value with BMP2 is recorded as “greatly inhibit”. Further, the “inhibition of BMP4-derived signals, comparison of inhibitors” value with human BMP4 (10 ng/ml hBMP4, 16 h, VHH, Noggin, Gremlin 500 ng/ml) is recorded as “greatly inhibit”. For the same molecule, the “inhibition of BMP5 signals, comparison of inhibitors” value with BMP5 is recorded as “greatly inhibit”.
